Columns and labels:
[1] = target: T1, chymotrypsin-like activity of 20S proteasome (Bos taurus, UniProt Q2TBX6+Q32KL2); assay: 20S proteasome chymotryptic activity inhibition assay (Suc-Leu-Leu-Val-Tyr-AMC cleavage); format: biochemical; conditions: 2 μg 20S proteasome from bovine brain, 50 μM fluorogenic substrate, 15 minutes at 37° C., pH7.5
T1 construct: was purified to homogeneity from bovine brain according to published methods; from tissue; host or cells: bovine brain
Procedure, shortened: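 Bovine brain 20S proteasome (2 μg) with inhibitor at 0.1-100 μg/ml in 50 mM HEPES, 0.1% SDS, pH7.5. Reaction started with 50 μM Suc-LLVY-AMC, run 15 min at 37° C, stopped with pH 4.0 acetate; liberated AMC read by fluorescence (EX 370 nm, EM 430 nm).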

[2] = target: T2, peptidylglutamyl activity of 20S proteasome (Bos taurus, UniProt Q2TBP0+Q3MHN0); assay: 20S proteasome peptidylglutamyl activity inhibition assay (CBZ-D-Ala-Leu-Glu-AMC cleavage); format: biochemical; conditions: Example 6: 2 μg 20S proteasome from bovine brain, substrate CBZ D-Ala-Leu-Glu-AMC, 15 minutes at 37° C.
T2 construct: was purified to homogeneity from bovine brain according to published methods; from tissue; host or cells: bovine brain
Method: Compounds of this invention prepared according to the method of Example 1 were also tested as follows. The 20S catalytic subunit of the proteasome (also known as the multicatalytic proteinase complex) was purified to homogeneity from bovine brain according to published methods (Wilk S. and Orlowski, M. 1983, 40 842 J. Neurochem). […] of the complex is measured by the increase in fluorescence following cleavage of the substrate peptide CBZ D-Ala-Leu-Glu-(7-amino-4-methyl coumarin). The standard in vitro assay consists of 2 μg 20S proteasome, 0.1-100 μg/ml proteasome inhibitor in […] 50 mM HEPES, containing 0.1% sodium dodecyl sulphate, pH 7.5. The proteolytic reaction is initiated by the addition of […] fluorogenic peptide substrate and allowed to progress for 15 minutes at 37° C. The reaction is terminated by the addition of […] 100 mM acetate buffer, pH 4.0. The rate of proteolysis is directly proportional to the amount of liberated aminomethylcoumarin which is measured by fluorescent spectroscopy (EX 370 nm, EM 430 nm). Compounds 1-207 were tested for peptidylglutamyl activity inhibition at >10 μg/mL. Compound 190 was active at 5 μg/mL.

IC50 for the inhibition of the chymotrypsin-like activity of 20S proteasome [1]: 3 µg/mL
peptidylglutamyl activity inhibition, active at [2]: 5 µg/mL
SMILES: CC(C)CC(NC(=O)C(Cc1ccc(-c2ccccc2)cc1)NC(=O)C(=O)Cc1c[nH]c2ccccc12)C(=O)NC(Cc1c[nH]cn1)C(=O)O (centres unmarked) [Compound 190]

From patent publication US6781000B1, “Alpha-ketoamide inhibitors of 20S proteasome” (CV Theurapeutics, Inc., priority 1998, dated 2004)
